Calls of active or inactive are those of the source.
Experiments:
Assay type in all cases: functional, cell-based
[1] = system: U-251; assay: Growth inhibition of human U251 cells at 10 uM by sulforhodamine B assay
[2] = system: ACHN; assay: Growth inhibition of human ACHN cells at 10 uM by sulforhodamine B assay
[3] = system: SF-539; assay: Growth inhibition of human SF539 cells at 10 uM by sulforhodamine B assay
[4] = system: NCI-H460; assay: Growth inhibition of human NCI-H460 cells at 10 uM by sulforhodamine B assay
[5] = system: SNB-19; assay: Growth inhibition of human SNB19 cells at 10 uM by sulforhodamine B assay
[6] = system: Malme-3M; assay: Growth inhibition of human MALME-3M cells at 10 uM by sulforhodamine B assay
[7] = system: SW-620; assay: Growth inhibition of human SW620 cells at 10 uM by sulforhodamine B assay
[8] = system: MDA-MB-231; assay: Growth inhibition of human MDA-MB-231 cells at 10 uM by sulforhodamine B assay
[9] = system: OVCAR-4; assay: Growth inhibition of human OVCAR4 cells at 10 uM by sulforhodamine B assay
[10] = system: SR; assay: Growth inhibition of human SR cells at 10 uM by sulforhodamine B assay
[11] = system: TK-10; assay: Growth inhibition of human TK10 cells at 10 uM by sulforhodamine B assay
[12] = system: PC-3; assay: Growth inhibition of human PC3 cells at 10 uM by sulforhodamine B assay
[13] = system: NCI/ADR-RES; assay: Growth inhibition of human NCI/ADR-RES cells at 10 uM by sulforhodamine B assay
[14] = system: K562; assay: Growth inhibition of human K562 cells at 10 uM by sulforhodamine B assay
[15] = system: MOLT-4; assay: Growth inhibition of human MOLT4 cells at 10 uM by sulforhodamine B assay
[16] = system: SF-268; assay: Growth inhibition of human SF268 cells at 10 uM by sulforhodamine B assay
[17] = system: 786-0; assay: Growth inhibition of human 786-0 cells at 10 uM by sulforhodamine B assay
[18] = system: OVCAR-5; assay: Growth inhibition of human OVCAR5 cells at 10 uM by sulforhodamine B assay
[19] = system: A498; assay: Growth inhibition of human A498 cells at 10 uM by sulforhodamine B assay
[20] = system: MDA-MB-468; assay: Growth inhibition of human MDA-MB-468 cells at 10 uM by sulforhodamine B assay
[21] = system: NCI-H322M; assay: Growth inhibition of human NCI-H322M cells at 10 uM by sulforhodamine B assay
[22] = system: SK-MEL-28; assay: Growth inhibition of human SK-MEL-28 cells at 10 uM by sulforhodamine B assay
[23] = system: SK-MEL-2; assay: Growth inhibition of human SK-MEL-2 cells at 10 uM by sulforhodamine B assay
[24] = system: M14; assay: Growth inhibition of human M14 cells at 10 uM by sulforhodamine B assay
[25] = system: HCC 2998; assay: Growth inhibition of human HCC2998 cells at 10 uM by sulforhodamine B assay
[26] = system: CCRF-CEM; assay: Growth inhibition of human CCRF-CEM cells at 10 uM by sulforhodamine B assay
[27] = system: RXF 393; assay: Growth inhibition of human RXF393 cells at 10 uM by sulforhodamine B assay
[28] = system: T47D; assay: Growth inhibition of human T47D cells at 10 uM by sulforhodamine B assay
[29] = system: SK-OV-3; assay: Growth inhibition of human SKOV3 cells at 10 uM by sulforhodamine B assay
[30] = system: KM12; assay: Growth inhibition of human KM12 cells at 10 uM by sulforhodamine B assay
[31] = system: HOP-92; assay: Growth inhibition of human HOP92 cells at 10 uM by sulforhodamine B assay
[32] = system: SN12C; assay: Growth inhibition of human SN12C cells at 10 uM by sulforhodamine B assay
[33] = system: UO-31; assay: Growth inhibition of human UO31 cells at 10 uM by sulforhodamine B assay
[34] = system: MCF7; assay: Growth inhibition of human MCF7 cells at 10 uM by sulforhodamine B assay
[35] = system: COLO 205; assay: Growth inhibition of human COLO205 cells at 10 uM by sulforhodamine B assay
[36] = system: BT-549; assay: Growth inhibition of human BT549 cells at 10 uM by sulforhodamine B assay
[37] = system: Hs-578T; assay: Growth inhibition of human Hs 578T cells at 10 uM by sulforhodamine B assay
[38] = system: SF-295; assay: Growth inhibition of human SF295 cells at 10 uM by sulforhodamine B assay
[39] = system: A549; assay: Growth inhibition of human A549/ATCC cells at 10 uM by sulforhodamine B assay
[40] = system: HOP-62; assay: Growth inhibition of human HOP62 cells at 10 uM by sulforhodamine B assay
[41] = system: LOX IMVI; assay: Growth inhibition of human LOXIMVI cells at 10 uM by sulforhodamine B assay
[42] = system: NCI-H23; assay: Growth inhibition of human NCI-H23 cells at 10 uM by sulforhodamine B assay
[43] = system: NCI-H226; assay: Growth inhibition of human NCI-H226 cells at 10 uM by sulforhodamine B assay
[44] = system: HT-29; assay: Growth inhibition of human HT-29 cells at 10 uM by sulforhodamine B assay
[45] = system: SK-MEL-5; assay: Growth inhibition of human SK-MEL-5 cells at 10 uM by sulforhodamine B assay
[46] = system: HL-60(TB); assay: Growth inhibition of human HL-60(TB) cells at 10 uM by sulforhodamine B assay
[47] = system: UACC-62; assay: Growth inhibition of human UACC62 cells at 10 uM by sulforhodamine B assay
[48] = system: DU-145; assay: Growth inhibition of human DU145 cells at 10 uM by sulforhodamine B assay
[49] = system: MDA-MB-435; assay: Growth inhibition of human MDA-MB-435 cells at 10 uM by sulforhodamine B assay
[50] = system: CAKI-1; assay: Growth inhibition of human Caki1 cells at 10 uM by sulforhodamine B assay
[51] = system: HCT-15; assay: Growth inhibition of human HCT15 cells at 10 uM by sulforhodamine B assay
[52] = system: NCI-H522; assay: Growth inhibition of human NCI-H522 cells at 10 uM by sulforhodamine B assay
[53] = system: UACC-257; assay: Growth inhibition of human UACC257 cells at 10 uM by sulforhodamine B assay
[54] = system: SNB-75; assay: Growth inhibition of human SNB75 cells at 10 uM by sulforhodamine B assay
[55] = system: OVCAR-3; assay: Growth inhibition of human OVCAR3 cells at 10 uM by sulforhodamine B assay
[56] = system: IGROV-1; assay: Growth inhibition of human IGROV1 cells at 10 uM by sulforhodamine B assay
[57] = system: RPMI-8226; assay: Growth inhibition of human RPMI8226 cells at 10 uM by sulforhodamine B assay
[58] = system: OVCAR-8; assay: Growth inhibition of human OVCAR8 cells at 10 uM by sulforhodamine B assay
[59] = system: HCT-116; assay: Growth inhibition of human HCT116 cells at 10 uM by sulforhodamine B assay

Measured: growth inhibition (GI)

COc1cc(-c2nc(-c3ccccc3)c(-c3ccccc3)n2Cc2ccccc2)ccc1OC1CCCCC1
active: all assays above

COc1ccc(-c2nc(-c3ccccc3)c(-c3ccccc3)n2C2CC2)cc1OC1CCCCC1
active: all assays above
